Data published in patent US20190276495A1 (priority 2016, published 2019).

Tests used:
[1] = test system: BALB/cAJc mice; settings: mouse, in vivo, iv
[2] = test system: Balb/c mice; settings: mouse, in vivo, ip

| Substance | IgG (anti-MAP antibody in sera) [1] | IgM (anti-MAP antibody in sera) [1] | IgG (anti-MAP antibody in sera) [2] | IgM antibody titer against Ebola 1 [2] |
| --- | --- | --- | --- | --- |
| Core-[PEG-FPRCRYVHK]4 [Ebola 2 MAP4] | no increase | no increase |  |  |
| Core-[PEG-IKKADGSECLP]4 [Ebola 1 MAP4] | increase in IgG was seen only in the 100-μg administration group |  | no increase | one mouse showed an evident increase, and two mice showed mild increases |
